Data from ChEMBL document CHEMBL1153245, “A profile of the in vitro anti-tumor activity of imidazolium-based ionic liquids” (2010).

Key:
Type in all cases: functional
MDA-MB-468 = test: Anticancer activity against human MDA-MB-468 cells assessed cell growth at 10 uM after 48 hrs by sulforhodamine B assay relative to control
SF-295 = test: Anticancer activity against human SF295 cells assessed cell growth at 10 uM after 48 hrs by sulforhodamine B assay relative to control
SK-OV-3 = test: Anticancer activity against human SKOV3 cells assessed cell growth at 10 uM after 48 hrs by sulforhodamine B assay relative to control
NCI-H522 = test: Anticancer activity against human NCI-H522 cells assessed cell growth at 10 uM after 48 hrs by sulforhodamine B assay relative to control
KM12 = test: Anticancer activity against human KM12 cells assessed cell growth at 10 uM after 48 hrs by sulforhodamine B assay relative to control
T47D = test: Anticancer activity against human T47D cells assessed cell growth at 10 uM after 48 hrs by sulforhodamine B assay relative to control
A498 = test: Anticancer activity against human A498 cells assessed cell growth at 10 uM after 48 hrs by sulforhodamine B assay relative to control
OVCAR-8 = test: Anticancer activity against human OVCAR8 cells assessed cell growth at 10 uM after 48 hrs by sulforhodamine B assay relative to control
NCI/ADR-RES = test: Anticancer activity against human NCI/ADR-RES cells assessed cell growth at 10 uM after 48 hrs by sulforhodamine B assay relative to control
M14 = test: Anticancer activity against human M14 cells assessed cell growth at 10 uM after 48 hrs by sulforhodamine B assay relative to control
SK-MEL-5 = test: Anticancer activity against human SK-MEL-5 cells assessed cell growth at 10 uM after 48 hrs by sulforhodamine B assay relative to control
BT-549 = test: Anticancer activity against human BT549 cells assessed cell growth at 10 uM after 48 hrs by sulforhodamine B assay relative to control
TK-10 = test: Anticancer activity against human TK10 cells assessed cell growth at 10 uM after 48 hrs by sulforhodamine B assay relative to control
SNB-19 = test: Anticancer activity against human SNB19 cells assessed cell growth at 10 uM after 48 hrs by sulforhodamine B assay relative to control
HCT-116 = test: Anticancer activity against human HCT116 cells assessed cell growth at 10 uM after 48 hrs by sulforhodamine B assay relative to control
UO-31 = test: Anticancer activity against human UO31 cells assessed cell growth at 10 uM after 48 hrs by sulforhodamine B assay relative to control
HCT-15 = test: Anticancer activity against human HCT15 cells assessed cell growth at 10 uM after 48 hrs by sulforhodamine B assay relative to control
MDA-MB-231 = test: Anticancer activity against human MDA-MB-231 cells assessed cell growth at 10 uM after 48 hrs by sulforhodamine B assay relative to control
OVCAR-3 = test: Anticancer activity against human OVCAR-3 cells assessed cell growth at 10 uM after 48 hrs by sulforhodamine B assay relative to control
HT-29 = test: Anticancer activity against human HT-29 cells assessed cell growth at 10 uM after 48 hrs by sulforhodamine B assay relative to control
SN12C = test: Anticancer activity against human SN12C cells assessed cell growth at 10 uM after 48 hrs by sulforhodamine B assay relative to control
HOP-92 = test: Anticancer activity against human HOP92 cells assessed cell growth at 10 uM after 48 hrs by sulforhodamine B assay relative to control
HCC 2998 = test: Anticancer activity against human HCC2998 cells assessed cell growth at 10 uM after 48 hrs by sulforhodamine B assay relative to control
OVCAR-5 = test: Anticancer activity against human OVCAR5 cells assessed cell growth at 10 uM after 48 hrs by sulforhodamine B assay relative to control
NCI-H460 = test: Anticancer activity against human NCI-H460 cells assessed cell growth at 10 uM after 48 hrs by sulforhodamine B assay relative to control
OVCAR-4 = test: Anticancer activity against human OVCAR4 cells assessed cell growth at 10 uM after 48 hrs by sulforhodamine B assay relative to control
SK-MEL-2 = test: Anticancer activity against human SK-MEL-2 cells assessed cell growth at 10 uM after 48 hrs by sulforhodamine B assay relative to control
UACC-257 = test: Anticancer activity against human UACC257 cells assessed cell growth at 10 uM after 48 hrs by sulforhodamine B assay relative to control
HOP-62 = test: Anticancer activity against human HOP62 cells assessed cell growth at 10 uM after 48 hrs by sulforhodamine B assay relative to control
COLO 205 = test: Anticancer activity against human COLO205 cells assessed cell growth at 10 uM after 48 hrs by sulforhodamine B assay relative to control
NCI-H23 = test: Anticancer activity against human NCI-H23 cells assessed cell growth at 10 uM after 48 hrs by sulforhodamine B assay relative to control
PC-3 = test: Anticancer activity against human PC3 cells assessed cell growth at 10 uM after 48 hrs by sulforhodamine B assay relative to control
NCI-H322M = test: Anticancer activity against human NCI-H322M cells assessed cell growth at 10 uM after 48 hrs by sulforhodamine B assay relative to control
IGROV-1 = test: Anticancer activity against human IGROV1 cells assessed cell growth at 10 uM after 48 hrs by sulforhodamine B assay relative to control
SK-MEL-28 = test: Anticancer activity against human SK-MEL-28 cells assessed cell growth at 10 uM after 48 hrs by sulforhodamine B assay relative to control
U-251 = test: Anticancer activity against human U251 cells assessed cell growth at 10 uM after 48 hrs by sulforhodamine B assay relative to control
CAKI-1 = test: Anticancer activity against human Caki1 cells assessed cell growth at 10 uM after 48 hrs by sulforhodamine B assay relative to control
SF-539 = test: Anticancer activity against human SF539 cells assessed cell growth at 10 uM after 48 hrs by sulforhodamine B assay relative to control
LOX IMVI = test: Anticancer activity against human LOXIMVI cells assessed cell growth at 10 uM after 48 hrs by sulforhodamine B assay relative to control
SNB-75 = test: Anticancer activity against human SNB75 cells assessed cell growth at 10 uM after 48 hrs by sulforhodamine B assay relative to control
A549 = test: Anticancer activity against human A549 cells assessed cell growth at 10 uM after 48 hrs by sulforhodamine B assay relative to control
[1] = Anticancer activity against human RPMI8266 cells assessed cell growth at 10 uM after 48 hrs by sulforhodamine B assay relative to control
UACC-62 = test: Anticancer activity against human UACC62 cells assessed cell growth at 10 uM after 48 hrs by sulforhodamine B assay relative to control

## CCCCCCCC[n+]1ccn(C)c1.[Cl-]
MDA-MB-468
  Activity: 46.81%
SF-295
  Activity: 101.39%
SK-OV-3
  Activity: 98.42%
NCI-H522
  Activity: 72.78%
KM12
  Activity: 81.14%
T47D
  Activity: 87.08%
A498
  Activity: 101.4%
OVCAR-8
  Activity: 77.68%
NCI/ADR-RES
  Activity: 95.09%
M14
  Activity: 87.47%
SK-MEL-5
  Activity: 86.81%
BT-549
  Activity: 81.23%
TK-10
  Activity: 77.56%
SNB-19
  Activity: 91.91%
HCT-116
  Activity: 62.3%
UO-31
  Activity: 85.09%
HCT-15
  Activity: 111.4%
MDA-MB-231
  Activity: 74.81%
OVCAR-3
  Activity: 81.96%
HT-29
  Activity: 69.97%
SN12C
  Activity: 93.85%
HOP-92
  Activity: 106.43%
HCC 2998
  Activity: 77.19%
OVCAR-5
  Activity: 101.85%
NCI-H460
  Activity: 101.53%
OVCAR-4
  Activity: 61.98%
SK-MEL-2
  Activity: 85.11%
UACC-257
  Activity: 83.24%
HOP-62
  Activity: 90.78%
COLO 205
  Activity: 97.68%
NCI-H23
  Activity: 62.26%
PC-3
  Activity: 97.45%
NCI-H322M
  Activity: 95.53%
IGROV-1
  Activity: 96.33%
SK-MEL-28
  Activity: 120.13%
U-251
  Activity: 79.77%
CAKI-1
  Activity: 66.65%
SF-539
  Activity: 71.01%
LOX IMVI
  Activity: 71.93%
SNB-75
  Activity: 83.9%
A549
  Activity: 85.73%
[1]
  Activity: 122.18%
UACC-62
  Activity: 81.12%

## CCCCCCCCCCCCCCCCCC[n+]1ccn(C)c1.FC(F)(F)C(F)(F)[P-](F)(F)(F)(C(F)(F)C(F)(F)F)C(F)(F)C(F)(F)F
MDA-MB-468
  Activity: 5.93%
SF-295
  Activity: -26.82%
SK-OV-3
  Activity: 10.45%
NCI-H522
  Activity: -63.43%
KM12
  Activity: -56.04%
T47D
  Activity: 32.25%
A498
  Activity: -47.4%
OVCAR-8
  Activity: -31.79%
NCI/ADR-RES
  Activity: -50.87%
M14
  Activity: -26.94%
SK-MEL-5
  Activity: -77.4%
BT-549
  Activity: -56.11%
TK-10
  Activity: -60.38%
SNB-19
  Activity: -34.47%
HCT-116
  Activity: -57.3%
UO-31
  Activity: -55.23%
HCT-15
  Activity: -23.91%
MDA-MB-231
  Activity: -73.64%
OVCAR-3
  Activity: -53.86%
HT-29
  Activity: -41.19%
SN12C
  Activity: -75.69%
HOP-92
  Activity: -39.5%
HCC 2998
  Activity: -80.57%
OVCAR-5
  Activity: -56.76%
NCI-H460
  Activity: -53.73%
OVCAR-4
  Activity: -18.12%
SK-MEL-2
  Activity: -54.7%
UACC-257
  Activity: -53.5%
HOP-62
  Activity: -79.75%
COLO 205
  Activity: 5.01%
NCI-H23
  Activity: -62.26%
PC-3
  Activity: -57.75%
NCI-H322M
  Activity: 5.98%
IGROV-1
  Activity: -30.94%
SK-MEL-28
  Activity: -45.82%
U-251
  Activity: -39.24%
CAKI-1
  Activity: -71.63%
SF-539
  Activity: -80.42%
LOX IMVI
  Activity: -25.56%
SNB-75
  Activity: -47.53%
A549
  Activity: -19.59%
[1]
  Activity: 49.96%
UACC-62
  Activity: -73.94%

## CCCCCCCCCCCCCCCCCC[n+]1ccn(C)c1.F[P-](F)(F)(F)(F)F
MDA-MB-468
  Activity: -23.16%
SF-295
  Activity: -28.21%
SK-OV-3
  Activity: -6.01%
NCI-H522
  Activity: -53.86%
KM12
  Activity: -60.81%
T47D
  Activity: 13.4%
A498
  Activity: -51.56%
OVCAR-8
  Activity: -34.11%
NCI/ADR-RES
  Activity: 22.73%
M14
  Activity: -28.52%
SK-MEL-5
  Activity: -85.04%
BT-549
  Activity: -23.5%
TK-10
  Activity: -59.16%
SNB-19
  Activity: -67.18%
HCT-116
  Activity: -27.74%
UO-31
  Activity: -29.46%
HCT-15
  Activity: 9.24%
MDA-MB-231
  Activity: -32.88%
OVCAR-3
  Activity: -57.4%
HT-29
  Activity: -50.31%
SN12C
  Activity: -24.52%
HOP-92
  Activity: -47.8%
HCC 2998
  Activity: -83.5%
OVCAR-5
  Activity: -60.74%
NCI-H460
  Activity: -67.11%
OVCAR-4
  Activity: -10.51%
SK-MEL-2
  Activity: -42.48%
UACC-257
  Activity: -62.12%
HOP-62
  Activity: -56%
COLO 205
  Activity: -27.43%
NCI-H23
  Activity: -49.37%
PC-3
  Activity: -62.83%
NCI-H322M
  Activity: 11.62%
IGROV-1
  Activity: -12.15%
SK-MEL-28
  Activity: -57.59%
U-251
  Activity: -22.42%
CAKI-1
  Activity: -80.74%
SF-539
  Activity: -80.04%
LOX IMVI
  Activity: -13.99%
SNB-75
  Activity: -68.15%
A549
  Activity: -24.42%
[1]
  Activity: 19.57%
UACC-62
  Activity: -65.74%
